Test results from US12605352B2, “Compositions and methods for inhibiting blood cancer cell growth” (UNIVERSITY OF NEW BRUNSWICK, priority 2019, dated 2026).

Legend:
[1] = tested on: KMM-1 human myeloma cells; experiment: Cell growth inhibition (cell viability assay) on IMiD-resistant human myeloma cells KMM-1; type: cell-based; conditions: for anti-myeloma cell growth inhibition (in words): 10 uM, KMM-1, listed in decreasing order of bioactivity; for inhibition at 10 µM: Homo sapiens, KMM-1 cells, 48 hr treatment
Text: (§1) In certain embodiments of the present invention, the remarkable cancer cell growth inhibitory potential of caffeic acid phenpropyl ester analogues was established by treating human leukemia, myeloma and lymphoma cell lines with the analogues of Table 1 and measuring the viability of blood cancer cells by cell viability assay. The efficacy of the analogues of Table 1 in comparison to a standard chemotherapy drug was confirmed.
With reference to Table 1, Table 2 and FIG. 1, FIG. 1 is a bar graph depicting cell growth inhibitory effect of caffeic acid phenpropyl ester (GL8) analogues at 10 uM concentration according to certain aspects of the present disclosure on human myeloma cells (Cell line: KMM-1; 48 hr treatment).

[2] = tested on: OCI-LY3 human lymphoma cells; experiment: Cell growth inhibition (cell viability assay) on IMiD-resistant human lymphoma cells OCI-LY3; type: cell-based; conditions: for anti-lymphoma cell growth inhibition (in words) / inhibition at 10 µM: 10 uM; for anti-lymphoma cell growth inhibition (in words): OCI-LY3, listed in decreasing order of bioactivity; for inhibition at 1 µM / inhibition at 10 µM: Homo sapiens, OCI-LY3 cells, 48 hr treatment
Text: as §1
With reference to Table 3 and FIG. 2, FIG. 2 is a bar graph depicting cell growth inhibitory effect of caffeic acid phenpropyl ester (GL8) analogues according to certain aspects of the present disclosure at 1 uM concentration on human lymphoma cells (Cell line: OCI-LY3; 48 hr treatment).
With reference to Table 1, Table 4 and FIG. 3, FIG. 3 is a bar graph depicting cell growth inhibitory effect of caffeic acid phenpropyl ester (GL8) analogues according to certain aspects of the present disclosure at 10 uM concentration on human lymphoma cells (Cell line: OCI-LY3; 48 hr treatment).

[3] = tested on: HL-60 human leukemia cells; experiment: Cell growth inhibition (cell viability assay) on human leukemia cells HL-60; type: cell-based; conditions: HL-60 cells, 48 hr treatment
Text: as §1
With reference to Table 5 and FIG. 4, FIG. 4 is a bar graph depicting cell growth inhibitory effect of caffeic acid phenpropyl ester (GL8) analogues at 10 uM concentration according to certain aspects of the present disclosure on human leukemia cells (Cell line: HL-60; 48 hr treatment).

KMM1 cells = experiment: Annexin V-PI flow cytometry apoptosis assay on KMM1 myeloma cells; type: cell-based, human; conditions: 10 uM, 72-hour treatment
Experimental: Induction of apoptosis in myeloma cells by various inhibitors was determined by staining exposed phosphatidylserine with Annexin V-FITC and DNA with Propidium iodide using Alexa Fluor® 488 annexin V/Dead Cell Apoptosis Kit (Invitrogen, ThermoFisher Scientific, CA) according to the manufacturer's instructions. Single-cell suspensions were analyzed on a Beckmann Coulter Gallios Flow Cytometer with Kaluza analyses software. Twenty-five thousand events were acquired for every condition. Apoptotic cells were scored as Annexin V+, PI− and Annexin V+, PI+.
Referring to FIG. 6, Apoptotic effect of veh/vehicle (DMSO), lenalidomide (len), pomalidomide (pom), CAPE, GL8, As26 and J229 (all compounds at 10 uM concentration) on KMM1 cells upon 72-hour treatment followed by Annexin V-PI flow cytometry analyses is shown. Percentage of early and late apoptotic cells are presented as mean±SD (*P≤0.05; **P≤0.01).

[4] = tested on: myeloma cell lines (KMM1, MM1R, JJN3); experiment: PrestoBlue cell viability assay, concentration response on myeloma cell lines; type: cell-based, human; conditions: in comparison to IMiDs, CAPE, GL8 and J229; 48 hours
Experimental: Myeloma cell lines were treated for 3 or 5 days with increasing concentration of lenalidomide (FIG. 5A) and pomalidomide (FIG. 5B). KMM1 cells (FIG. 5D), MM1R cells (FIG. 5E), and JJN3 cells (FIG. 5F) were treated for 48 hours with varying concentration of CAPE, GL8, As26 and J229. The cell growth inhibition was determined by PrestoBlue cell viability assay. Data from three independent experiments is presented as mean±SD. IC50 values (FIG. 5C) representing half-maximal inhibitory concentration of compounds were determined using GraphPad prism analyses software.

COc1cc(/C=C/C(=O)OCCCc2ccccc2)cc(OC)c1O [HM7, (E)-3-phenylpropyl 3-(4-hydroxy-3,5-dimethoxyphenyl)acrylate]
anti-myeloma cell growth inhibition (in words) [1]: superior anti-myeloma cell growth inhibition | inhibition at 10 µM [1]: 26.6% | anti-lymphoma cell growth inhibition (in words) [2]: superior anti-lymphoma cell growth inhibition | inhibition at 1 µM [2]: -4.9% | inhibition at 10 µM [2]: 90% | inhibition at 10 µM [3]: 24.1%

Cc1ccc(CCOC(=O)/C=C/c2ccc(O)c(O)c2)cc1 [MT25, (E)-(4-methylphenethyl) 3-(3,4-dihydroxyphenyl)acrylate]
inhibition at 10 µM [1]: 21.6% | inhibition at 1 µM [2]: 10% | inhibition at 10 µM [2]: 59.8% | inhibition at 10 µM [3]: 28.7%

O=C(/C=C/c1ccc(O)c(O)c1)OCc1ccccc1 [GL7, (E)-benzyl 3-(3,4-dihydroxyphenyl)acrylate]
inhibition at 10 µM [1]: 15.9% | inhibition at 1 µM [2]: 10.5% | inhibition at 10 µM [2]: 18.9% | inhibition at 10 µM [3]: 20.5%

COc1cc(/C=C/C(=O)OCCc2ccccc2)ccc1O [MT49, (E)-phenethyl 3-(4-hydroxy-3-methoxyphenyl)acrylate]
inhibition at 10 µM [1]: 6.5% | inhibition at 1 µM [2]: -1% | inhibition at 10 µM [2]: 1.2% | inhibition at 10 µM [3]: 14.4%

Nc1cccc2c1CN(C1CCC(=O)NC1=O)C2=O (centres unmarked) [Lenalidomide, lenalidomide, reference compound]
inhibition at 10 µM [1]: 7.5% | inhibition at 10 µM [2]: 7.5% | inhibition at 10 µM [3]: 1.6%

O=C(/C=C/c1ccc(O)c(O)c1)OC/C=C/c1ccccc1 [LL14, (2E)-cinnamyl 3-(3,4-dihydroxyphenyl)acrylate]
inhibition at 10 µM [1]: 16.1% | inhibition at 1 µM [2]: -1% | inhibition at 10 µM [2]: 61.5% | inhibition at 10 µM [3]: 21.6%

O=C(/C=C/c1ccc(O)c(O)c1)OCCCCc1ccccc1 [LL23, (E)-4-phenylbutyl 3-(3,4-dihydroxyphenyl)acrylate]
anti-myeloma cell growth inhibition (in words) [1]: superior anti-myeloma cell growth inhibition | inhibition at 10 µM [1]: 27.2% | inhibition at 1 µM [2]: -9.3% | inhibition at 10 µM [2]: 71.7% | inhibition at 10 µM [3]: 33%

O=C(/C=C/c1ccc(O)c(O)c1)OCCc1ccc(F)cc1 [MT26, (E)-(4-fluorophenethyl) 3-(3,4-dihydroxyphenyl)acrylate]
inhibition at 10 µM [1]: 25.9% | anti-lymphoma cell growth inhibition (in words) [2]: superior anti-lymphoma cell growth inhibition | inhibition at 1 µM [2]: 0.7% | inhibition at 10 µM [2]: 79.3% | inhibition at 10 µM [3]: 32.1%

COc1cc(/C=C/C(=O)OCCc2ccccc2)cc(OC)c1O [HM5, (E)-phenethyl 3-(4-hydroxy-3,5-dimethoxyphenyl)acrylate]
inhibition at 10 µM [1]: -8.6% | inhibition at 1 µM [2]: 3.1% | inhibition at 10 µM [2]: -15.4% | inhibition at 10 µM [3]: -13.3%

O=C(/C=C/c1cc(O)ccc1O)OCCCc1ccccc1 [As26, (E)-3-phenylpropyl 3-(2,5-dihydroxyphenyl)acrylate]
anti-myeloma cell growth inhibition (in words) [1]: superior anti-myeloma cell growth inhibition | inhibition at 10 µM [1]: 89.7% | anti-lymphoma cell growth inhibition (in words) [2]: superior anti-lymphoma cell growth inhibition | inhibition at 1 µM [2]: 26.6% | inhibition at 10 µM [2]: 90.3% | inhibition at 10 µM [3]: 54.4% | apoptotic effect (in words) (KMM1 cells): Remarkable apoptotic effect | myeloma cell growth inhibitory effect (in words) [4]: superior myeloma cell growth inhibitory effect
